# Experimental data: patent US20260124222A1, “ISOTHIAZOLYLCARBOXAMIDE COMPOUNDS AND THEIR USE IN THERAPY” (HOTSPOT THERAPEUTICS, INC., priority 2022, published 2026)
# pIC50: −log10 of the molar value.
# Biological target: T1, Avi-tagged FL MALT-1 (Homo sapiens, UniProt Q9UDY8)
# T1 construct: Avi-tagged FL MALT-1 (Pharmaron, stored at −70° C.); Avi-tag; purchased Pharmaron
# T1 sequence (Q9UDY8 1-824): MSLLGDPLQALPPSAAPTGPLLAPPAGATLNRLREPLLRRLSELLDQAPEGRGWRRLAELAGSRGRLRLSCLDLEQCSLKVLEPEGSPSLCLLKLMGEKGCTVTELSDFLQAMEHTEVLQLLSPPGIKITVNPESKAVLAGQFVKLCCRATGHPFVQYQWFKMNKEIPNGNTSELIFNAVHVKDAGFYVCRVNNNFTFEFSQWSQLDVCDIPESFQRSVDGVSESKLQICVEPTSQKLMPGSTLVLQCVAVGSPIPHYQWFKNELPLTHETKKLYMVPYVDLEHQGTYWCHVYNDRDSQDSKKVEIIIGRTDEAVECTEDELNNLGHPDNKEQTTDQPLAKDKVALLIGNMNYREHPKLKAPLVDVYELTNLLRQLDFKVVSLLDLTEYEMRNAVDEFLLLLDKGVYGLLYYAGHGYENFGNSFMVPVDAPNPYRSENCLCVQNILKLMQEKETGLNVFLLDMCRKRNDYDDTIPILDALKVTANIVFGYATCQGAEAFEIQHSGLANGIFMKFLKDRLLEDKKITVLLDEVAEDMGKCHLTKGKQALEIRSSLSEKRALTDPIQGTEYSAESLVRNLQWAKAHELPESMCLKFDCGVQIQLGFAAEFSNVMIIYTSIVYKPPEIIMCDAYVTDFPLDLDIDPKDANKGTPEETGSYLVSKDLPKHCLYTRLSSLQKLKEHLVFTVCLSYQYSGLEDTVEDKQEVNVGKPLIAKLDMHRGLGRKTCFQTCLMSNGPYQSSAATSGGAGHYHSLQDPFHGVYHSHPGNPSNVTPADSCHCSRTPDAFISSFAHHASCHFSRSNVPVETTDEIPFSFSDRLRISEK
# Experiment: MALT-1 Fluorogenic Peptide Cleavage Assay (MALT1 inhibition assay)
# Type: biochemical
# Conditions: Ac-LRSR-AMC peptide substrate; 30 min pre-incubation, 90 min reaction at room temperature; fluorescence
# Protocol: Inhibition of MALT1 activity by a small molecule was evaluated using MALT-1 Fluorogenic Peptide Cleavage Assay. The assay utilizes a quenched AMC-labelled peptide that contains the MALT-1 recognition sequence and cleavage site (LRSR). MALT-1 mediated cleavage of the peptide relieves the quenching and leads to an increase in fluorescence at excitation (342 nm) and emission (441 nm).
# The following reagents were obtained commercially and used to prepare standard reagent formulations as further described below: N-2-hydroxyethylpiperazine-N-2-ethane sulfonic acid (HEPES) (1 M, pH 7.5, stored at 4° C.), sodium citrate (stored at RT), tris(2-carboxyethyl)phosphine hydrochloride (T-CEP) (500 mM, stored at −20° C.), ethylenediaminetetraacetic acid (EDTA) (500 mM, stored at RT), dimethylsulfoxide (DMSO, stored at RT), 3-[(3-cholamidopropyl)dimethylammonio]-1-propane sulphate (CHAPS) (stored at RT), dimethylsulfoxide (DMSO), DMSO (Fisher Scientific, stored at RT), Avi-tagged FL MALT-1 (Pharmaron, stored at −70° C.), Ac-LRSR-AMC Peptide (SM Biochemicals, stored at −20° C.), and ultrapure water (MILLI-Q®).
# The standard reagent formulations used in this assay were prepared and stored as follows. A 1.1 M solution of sodium citrate (161.3 g, 500 mL) was prepared and stored at room temperature. A 10% (w/v) CHAPS solution (2.0 g, 20 mL) was prepared and stored at 4° C. A 500 mM HEPES solution having pH of 6.89 was prepared from 200 mL of a 1 M HEPES solution having a pH of 7.5 using concentrated hydrochloric acid and brought to a final volume of 400 mL with MILLI-Q© H2O. The substrate, 10 mM Ac-LRSR-AMC Peptide, was prepared (10 mg, 1.370 mL DMSO) and stored at −20° C.
# Compounds were plated to provide a 2% DMSO final concentration using a ProxiPlate-384 Plus F Black 384-shallow well microplate. The assay-ready plates were equilibrated to room temperature. A reaction buffer (30 mL total volume) was prepared by combining HEPES (pH 6.89, 25 mM, 1.5 mL), sodium citrate (660 mM, 18.0 mL), T-CEP (1 mM, 0.06 mL), EDTA (0.1 mM, 0.06 mL), CHAPS (0.05%, 0.15 mL), DMSO (2%, 0.6 mL), and MILLI-Q® H2O (10.23 mL; 9.63 mL when backfilled to 2% DMSO) followed by thorough mixing.
# MALT-1 was thawed and kept on ice. Peptide substrate was thawed on the bench under ambient conditions. A MALT-1 enzyme working stock was prepared from Avi-tagged FL MALT-1 (40 nM in a prepared reagent volume of […]) and the reaction buffer (13.0 mL). MALT1 working stock (5 μL) was added to each well of the microplate. MALT-1 was pre-incubated with compounds for 30 minutes at room temperature.
# Two substrate working stocks (Km and 10×Km) were prepared. The 1×Km substrate was prepared from Ac-LRSR-AMC Peptide (50 μM in a prepared reagent volume of […]) and the reaction buffer (6.965 mL). The 10×Km substrate was prepared from Ac-LRSR-AMC Peptide ([…] in a prepared reagent volume of 196.0 μL) and the reaction buffer (6.804 mL). The reaction was initiated by the addition of substrate working stock (5 μL, 50 μM) to Km plates and the addition of substrate working stock (5 μL 280 μM) to 10×Km plates. The plates were covered and incubated on the bench at room temperature for 90 minutes.
# Fluorescence intensity was determined using a CLARIOstar microplate reader (BMG LABTECH) using the optimised AMC mode. Before taking readings, a 70% gain was applied on the neutral control well. Compound data were normalised to % Inhibition and used to plot sigmoidal concentration response curves to yield various parameters including IC50.
row,SMILES,pIC50
1,"CC(=O)N(C)c1ncc(NC(=O)c2snc(-c3ccccc3)c2C2CC2)cc1C#N [I-51, N-(5-CYANO-6-(N-METHYLACETAMIDO) PYRIDIN-3-YL)-4-CYCLOPROPYL-3-PHENYLISOTHIAZOLE-5-CARBOXAMIDE]",≥ 6.40
2,"N#Cc1cc(NC(=O)c2snc(O)c2C2CC2)cnc1-n1nccn1 [I-52, N-(5-CYANO-6-(2H-1,2,3-TRIAZOL-2-YL) PYRIDIN-3-YL)-4-CYCLOPROPYL-3-HYDROXYISOTHIAZOLE-5-CARBOXAMIDE]",< 5.60
3,"N#Cc1cc(NC(=O)c2snc(-c3ccccc3)c2C2CC2)cnc1N1CCOCC1 [I-53, N-(5-CYANO-6-MORPHOLINOPYRIDIN-3-YL)-4-CYCLOPROPYL-3-PHENYLISOTHIAZOLE-5-CARBOXAMIDE]",≥ 6.40
4,"CN1CCN(c2ncc(NC(=O)c3snc(-c4ccccc4)c3C3CC3)cc2C#N)CC1 [I-54, N-(5-CYANO-6-(4-METHYLPIPERAZIN-1-YL) PYRIDIN-3-YL)-4-CYCLOPROPYL-3-PHENYLISOTHIAZOLE-5-CARBOXAMIDE]",≥ 6.40
5,"CN(C)C(=O)c1ccc(NC(=O)c2snc(-c3ccccc3)c2C2CC2)cc1C(F)(F)F [I-55, 4-CYCLOPROPYL-N-(4-(DIMETHYL-CARBAMOYL)-3-(TRIFLUOROMETHYL) PHENYL)-3-PHENYLISOTHIAZOLE-5-CARBOXAMIDE]",≥ 6.40
6,"CC(C)c1nsc(C(=O)Nc2cnc(-n3nccn3)c(C#N)c2)c1C1CC1 [I-56, N-(5-CYANO-6-(2H-1,2,3-TRIAZOL-2-YL) PYRIDIN-3-YL)-4-CYCLOPROPYL-3-ISOPROPYLISOTHIAZOLE-5-CARBOXAMIDE]",≥ 6.40
7,"O=C(Nc1cnc(-n2nccn2)c(Cl)c1)c1nsc(-c2ccccc2)c1C(F)(F)F [I-57, N-(5-CHLORO-6-(2H-1,2,3-TRIAZOL-2-YL) PYRIDIN-3-YL)-5-PHENYL-4-(TRIFLUOROMETHYL)ISOTHIAZOLE-3-CARBOXAMIDE]",≥ 6.40
8,"O=C(Nc1cnc(C(=O)N2CC(O)C2)c(Cl)c1)c1snc(-c2ccccc2)c1C1CC1 [I-58, N-(5-CHLORO-6-(3-HYDROXYAZETIDINE-1-CARBONYL)PYRIDIN-3-YL)-4-CYCLOPROPYL-3-PHENYLISOTHIAZOLE-5-CARBOXAMIDE]",≥ 6.40
9,"O=C(Nc1ccc(C(=O)N2CC(O)C2)nc1)c1snc(-c2ccccc2)c1C1CC1 [I-59, 4-CYCLOPROPYL-N-(6-(3-HYDROXY-AZETIDINE-1-CARBONYL)PYRIDIN-3-YL)-3-PHENYLISOTHIAZOLE-5-CARBOXAMIDE]",< 5.60
10,"CC(C)c1nsc(C(=O)Nc2cnc(-n3nccn3)c(Cl)c2)c1C1CC1 [I-60, N-(5-CHLORO-6-(2H-1,2,3-TRIAZOL-2-YL) PYRIDIN-3-YL)-4-CYCLOPROPYL-3-ISOPROPYLISOTHIAZOLE-5-CARBOXAMIDE]",≥ 6.40
11,N#Cc1cc(NC(=O)c2snc(-c3ccccc3)c2C2(O)COC2)cnc1-n1nccn1 [I-61],< 5.60
12,"CN1Cc2cc(NC(=O)c3snc(-c4ccccc4)c3C3CC3)ccc2C1=O [I-62, 4-CYCLOPROPYL-N-(2-METHYL-1-OXOISOINDOLIN-5-YL)-3-PHENYLISOTHIAZOLE-5-CARBOXAMIDE]",< 5.60
13,Cn1ccc2cc(NC(=O)c3snc(-c4ccccc4)c3C3CC3)ccc2c1=O [I-98],< 5.60
14,O=C(Nc1cnc(-n2nccn2)c(Cl)c1)c1snc(-c2cccc3[nH]c(=O)ccc23)c1C(F)(F)F [I-99],≥ 6.40
15,N#Cc1cc(NC(=O)c2snc(-c3cccc4ncsc34)c2C2CC2)cnc1-n1nccn1 [I-100],≥ 6.40
16,Cn1ncc2cccc(-c3nsc(C(=O)Nc4cnc(-n5nccn5)c(C#N)c4)c3C3CC3)c21 [I-101],≥ 6.40
17,CN(C)c1nsc(C(=O)Nc2cnc(-n3nccn3)c(C#N)c2)c1C(F)(F)F [I-102],≥ 6.40
18,O=C(Nc1ccnc(C(F)(F)F)c1)c1snc(-c2cccc3ncsc23)c1C1CC1 [I-103],≥ 6.40
19,Cc1cc(NC(=O)c2snc(-c3cccc4ncsc34)c2C2CC2)ccn1 [I-104],≥ 6.40
20,COc1ccc2c(-c3nsc(C(=O)Nc4cnc(-n5nccn5)c(Cl)c4)c3C(F)(F)F)cccc2n1 [I-105],≥ 6.40

# More lines, now with the values ahead:
row,pIC50,SMILES
1,≥ 6.40,COc1nccc2c(-c3nsc(C(=O)Nc4cnc(-n5nccn5)c(Cl)c4)c3C(F)(F)F)cccc12 [I-106]
2,≥ 6.40,O=C(Nc1cnc(-n2nccn2)c(Cl)c1)c1snc(-c2cccc3c(=O)[nH]ccc23)c1C(F)(F)F [I-107]
3,5.60 to 6.00,Cn1cccc(-c2nsc(C(=O)Nc3cnc(-n4nccn4)c(C#N)c3)c2C(F)(F)F)c1=O [I-108]
4,≥ 6.40,N#Cc1cc(NC(=O)c2snc(-c3cccc4ncoc34)c2C2CC2)cnc1-n1nccn1 [I-109]
5,6.00 to 6.40,N#Cc1cc(NC(=O)c2snc(C3CCOC3)c2C2CC2)cnc1-n1nccn1 (stereo not drawn) [I-110]
6,< 5.60,CN1Cc2cc(NC(=O)c3snc(-c4ccccc4)c3C3CC3)cnc2C1=O [I-111]
7,≥ 6.40,Cc1cccnc1-c1nsc(C(=O)Nc2cnc(-n3nccn3)c(C#N)c2)c1C1CC1 [I-112]
8,≥ 6.40,Cc1cc(NC(=O)c2snc(-c3cccc4ncoc34)c2C2CC2)cnc1-n1nccn1 [I-113]
9,≥ 6.40,N#Cc1cc(NC(=O)c2snc(-c3cccn4nccc34)c2C2CC2)cnc1-n1nccn1 [I-114]
10,≥ 6.40,N#Cc1cc(NC(=O)c2snc(C3CCOC3)c2C2CC2)cnc1-n1nccn1 (stereo not drawn) [I-115]
11,≥ 6.40,Cc1cn(C)nc1-c1nsc(C(=O)Nc2cnc(-n3nccn3)c(C#N)c2)c1C1CC1 [I-116]
12,≥ 6.40,O=C(Nc1cnc(C(=O)N2CC(O)C2)c(Cl)c1)c1snc(-c2cccc3ncsc23)c1C1CC1 [I-117]
13,≥ 6.40,O=C(Nc1cnc(-n2nccn2)c(Cl)c1)c1snc(-c2cccc3ncccc23)c1C1CC1 [I-118]
14,≥ 6.40,O=C(Nc1cncc(C(F)(F)F)c1)c1snc(-c2cccc3ncccc23)c1C1CC1 [I-119]
15,≥ 6.40,Cn1nnc2cccc(-c3nsc(C(=O)Nc4cnc(-n5nccn5)c(C#N)c4)c3C3CC3)c21 [I-120]
16,5.60 to 6.00,CC(=O)N1CCC(c2nsc(C(=O)Nc3cnc(-n4nccn4)c(C#N)c3)c2C2CC2)CC1 [I-121]
17,< 5.60,CN1CCC(c2nsc(C(=O)Nc3cnc(-n4nccn4)c(C#N)c3)c2C2CC2)CC1 [I-122]
18,≥ 6.40,N#Cc1cc(NC(=O)c2snc(-c3cccc4ncccc34)c2C2CC2)cnc1-n1nccn1 [I-123]
19,5.60 to 6.00,CC(C)c1nsc(C(=O)Nc2ccnc(C(F)(F)F)c2)c1C1CC1 [I-124]
